Assay results taken from US20210220314A1, “AMINO ACID COMPOSITION FOR ENABLING FULFILMENT OF THE AMINO ACID REQUIREMENTS OF A MONOGASTRIC ANIMAL SUCH AS A HUMAN OR A PIG” (VETAGRO INTERNATIONAL S.R.L., priority 2018, published 2021).

Settings: pig, in vivo, po

Structure (SMILES) | presence of marker in the content of different sections of the gastrointestinal tract
C/C=C/C=C/C(=O)O [sorbic acid] | present in the different intestinal sections only when administered in encapsulated form in the lipid matrix
COc1cc(C=O)ccc1O [vanillin] | present in the different intestinal sections only when administered in encapsulated form in the lipid matrix
